{"source": "patent US6087119A", "about": "“Method for determining the catalytic activity of factor IXa” (Roche Diagnostics GmbH, priority 1996, dated 2000)", "biological_target": "rFIXa (human) (Homo sapiens, UniProt P00740)", "sequence (P00740 227-461)": "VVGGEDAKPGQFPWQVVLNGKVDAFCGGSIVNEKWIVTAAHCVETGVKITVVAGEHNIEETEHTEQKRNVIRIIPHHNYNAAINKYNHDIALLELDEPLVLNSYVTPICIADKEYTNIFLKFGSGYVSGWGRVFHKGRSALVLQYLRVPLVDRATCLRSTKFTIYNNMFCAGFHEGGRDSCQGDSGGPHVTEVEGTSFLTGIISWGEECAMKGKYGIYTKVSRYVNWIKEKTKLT", "sequence (P00740 131-226)": "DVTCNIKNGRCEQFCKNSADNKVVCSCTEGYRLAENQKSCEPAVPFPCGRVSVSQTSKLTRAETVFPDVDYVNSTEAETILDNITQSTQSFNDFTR", "experiment": "Influence of the pH on the activity of rFIXa in the presence of ethylene glycol", "type": "biochemical", "design": "coding for the FIX protease domain from amino acid position 181 to 415; Met (ATG start codon) (N); made in house", "conditions": "25% ethylene glycol; for increase of cleavage rates: pH 7.0-10.0; for cleavage rate mA/min: rFIXa (human)", "from_the_text": "0.28 μmol/l rFIXa (human)"}
{"smiles": "OCCO", "note": "[Ethylene glycol]", "values": [{"measurement": "increase of cleavage rates", "setting": "substrate MOC-D-Nle-Gly-Arg-pNA", "result": 14, "unit": "fold"}, {"measurement": "increase of cleavage rates", "setting": "substrate MeSO2-D-CHG-Gly-Arg-pNA", "result": 20, "unit": "fold"}, {"measurement": "increase of cleavage rates", "setting": "substrate MeSO2-D-HHT-Gly-Arg-pNA", "result": 10, "unit": "fold"}, {"measurement": "cleavage rate mA/min", "setting": "pH 7.0, MOC-D-Nle-Gly-Arg-pNA", "result": 31.5, "unit": "mA/min"}, {"measurement": "cleavage rate mA/min", "setting": "pH 7.0, MeSO2-D-CHG-Gly-Arg-pNA", "result": 154.7, "unit": "mA/min"}, {"measurement": "cleavage rate mA/min", "setting": "pH 7.0, MeSO2-D-HHT-Gly-Arg-pNA", "result": 56.5, "unit": "mA/min"}, {"measurement": "cleavage rate mA/min", "setting": "pH 7.5, MOC-D-Nle-Gly-Arg-pNA", "result": 70.1, "unit": "mA/min"}, {"measurement": "cleavage rate mA/min", "setting": "pH 7.5, MeSO2-D-CHG-Gly-Arg-pNA", "result": 289.8, "unit": "mA/min"}, {"measurement": "cleavage rate mA/min", "setting": "pH 7.5, MeSO2-D-HHT-Gly-Arg-pNA", "result": 124.5, "unit": "mA/min"}, {"measurement": "cleavage rate mA/min", "setting": "pH 8.0, MOC-D-Nle-Gly-Arg-pNA", "result": 99.7, "unit": "mA/min"}, {"measurement": "cleavage rate mA/min", "setting": "pH 8.0, MeSO2-D-CHG-Gly-Arg-pNA", "result": 372.4, "unit": "mA/min"}, {"measurement": "cleavage rate mA/min", "setting": "pH 8.0, MeSO2-D-HHT-Gly-Arg-pNA", "result": 173.6, "unit": "mA/min"}, {"measurement": "cleavage rate mA/min", "setting": "pH 8.25, MOC-D-Nle-Gly-Arg-pNA", "result": 102.7, "unit": "mA/min"}, {"measurement": "cleavage rate mA/min", "setting": "pH 8.25, MeSO2-D-CHG-Gly-Arg-pNA", "result": 382.2, "unit": "mA/min"}, {"measurement": "cleavage rate mA/min", "setting": "pH 8.25, MeSO2-D-HHT-Gly-Arg-pNA", "result": 176.0, "unit": "mA/min"}, {"measurement": "cleavage rate mA/min", "setting": "pH 8.5, MOC-D-Nle-Gly-Arg-pNA", "result": 104.3, "unit": "mA/min"}, {"measurement": "cleavage rate mA/min", "setting": "pH 8.5, MeSO2-D-CHG-Gly-Arg-pNA", "result": 389.8, "unit": "mA/min"}, {"measurement": "cleavage rate mA/min", "setting": "pH 8.5, MeSO2-D-HHT-Gly-Arg-pNA", "result": 182.1, "unit": "mA/min"}, {"measurement": "cleavage rate mA/min", "setting": "pH 8.75, MOC-D-Nle-Gly-Arg-pNA", "result": 101.6, "unit": "mA/min"}, {"measurement": "cleavage rate mA/min", "setting": "pH 8.75, MeSO2-D-CHG-Gly-Arg-pNA", "result": 395.6, "unit": "mA/min"}, {"measurement": "cleavage rate mA/min", "setting": "pH 8.75, MeSO2-D-HHT-Gly-Arg-pNA", "result": 170.7, "unit": "mA/min"}, {"measurement": "cleavage rate mA/min", "setting": "pH 9.0, MOC-D-Nle-Gly-Arg-pNA", "result": 97.3, "unit": "mA/min"}, {"measurement": "cleavage rate mA/min", "setting": "pH 9.0, MeSO2-D-CHG-Gly-Arg-pNA", "result": 373.3, "unit": "mA/min"}, {"measurement": "cleavage rate mA/min", "setting": "pH 9.0, MeSO2-D-HHT-Gly-Arg-pNA", "result": 164.1, "unit": "mA/min"}, {"measurement": "cleavage rate mA/min", "setting": "pH 9.5, MOC-D-Nle-Gly-Arg-pNA", "result": 70.7, "unit": "mA/min"}, {"measurement": "cleavage rate mA/min", "setting": "pH 9.5, MeSO2-D-CHG-Gly-Arg-pNA", "result": 255.6, "unit": "mA/min"}, {"measurement": "cleavage rate mA/min", "setting": "pH 9.5, MeSO2-D-HHT-Gly-Arg-pNA", "result": 112.0, "unit": "mA/min"}, {"measurement": "cleavage rate mA/min", "setting": "pH 10.0, MOC-D-Nle-Gly-Arg-pNA", "result": 68.3, "unit": "mA/min"}, {"measurement": "cleavage rate mA/min", "setting": "pH 10.0, MeSO2-D-CHG-Gly-Arg-pNA", "result": 244.5, "unit": "mA/min"}, {"measurement": "cleavage rate mA/min", "setting": "pH 10.0, MeSO2-D-HHT-Gly-Arg-pNA", "result": 110.1, "unit": "mA/min"}]}
